Source: PMC9060023 (Skin Health and Disease, 2021)

How the values were obtained:
[1] = Tissue distribution study in rats; format: in vivo, rat; details: data not shown
[2] = Pharmacokinetic study, 4 weeks repeated oral dosing in cynomolgus monkeys; format: in vivo, cynomolgus monkey; details: for Cmax / Tmax / AUC(0-t): female, cynomolgus monkey, plasma; for AUC(0-t): read-out: AUC0–24 h
[3] = tested on: B16F1 mouse melanoma cell line; assay: Melanin production in B16F1 cell line; format: cell-based; details: B16-F1, 72 h, read-out: EC50 of melanin production (95% confidence interval)
Description: Dulbecco's modified Eagle medium without phenol red (Life Technologies), containing 10% foetal bovine serum (Gibco) and 100 U/ml of penicillin‐streptomycin (Gibco), was used as the assay medium. Cells (1.5 × 10^4) were seeded into a 96‐well culture plate. Serially diluted test substances were added to the plate and incubated at 37°C in a humidified 5% CO2 incubator for 3 days.

[4] = tested on: human MC1R (hMC1R); assay: Cyclic AMP assay in HEK293 cells stably expressing hMC1R; format: cell-based; details: wild type and variants
Description: (§2) The site‐specific integration of each MCR gene was carried out in accordance with the Jump‐In^TM TI^TM Gateway® Targeted Integration System user guide (www.lifetechnologies.com) except replacement of tetracycline‐induced CMV promoter into SV40 promoter in MCR expression vector as previously described.[15] This technology enables stable single copy integration at the same location in the genome, equalising expression levels. CHO‐K1 cells expressing human MC2R and accessory protein MRAP were prepared by EuroscreenFast (Gosselies, Belgium).
(§3) Hanks' balanced salt solution containing 1% bovine serum albumin and 10 mmol/l HEPES was prepared and used as an assay buffer. Cells were suspended in the assay buffer containing 0.5 mmol/l 3‐isobutyl‐1‐methylxanthine (Calbiochem) and plated into a microplate. Serially diluted test substances were then added and incubated for 30 min at 37°C. Concentrations of cAMP in the cells were quantified using the cAMP dynamic 2 kit (Cisbio Bioassays) by measuring fluorescence.

[5] = tested on: Tyr, Trp1 and Dct genes; assay: Expression of melanogenesis genes in pinnae of Ay/a mice (quantitative real-time PCR); format: in vivo, mouse
Description: (§1) Unless noted otherwise, 3‐week‐old male C57BL/6J‐A^y/+ mice (Ay/a mice) were purchased from Japan SLC, Inc. Mice were housed under specific pathogen‐free conditions, and all animal experiments were conducted according to the Guidelines for Animal Experimentation at our institute. On day 0, the coat of the lower back was shaved, and animals were allocated to experimental groups. […] Assessment of coat colour of the shaved area on day 6 was performed macroscopically in a blinded manner. The dorsal skins were dissected and fixed in a neutralised formalin then embedded in paraffin. Melanin production in the hair roots of the dorsal skin was histologically evaluated by Fontana‐Masson staining.
Total RNA was extracted using the Qiagen RNeasy Mini Kit (Qiagen), and quantitative real‐time PCR for Tyr, Trp1 and Dct was performed using the One Step SYBR PrimeScript PLUS RT‐PCR Kit (Takara Bio). Hypoxanthine phosphoribosyltransferase 1 (Hprt) was used as an endogenous control for normalisation. The ΔCT method was used to determine the relative expression levels. All PCR primers were purchased from Takara Bio with following product codes, MA153806 (Tyr), MA129755 (Trp1), MA118342 (Dct) and MA031262 (Hprt).

[6] = target: T1, human MC2R (hMC2R) (Homo sapiens, UniProt Q01718); assay: Cyclic AMP assay in CHO-K1 cells expressing human MC2R and MRAP; format: cell-based; details: data not shown, read-out: EC50 agonistic activity (cAMP)
T1 construct: host or cells: CHO-K1

[7] = tested on: melanocytes in face; assay: Chronic toxicity study, histopathology of melanocytes in face; format: in vivo; details: chronic toxicity study in non-rodent species; data not shown
[8] = target: T2, rat MC1R (Rattus norvegicus, UniProt B6ZGR5); assay: Cyclic AMP assay in HEK293 cells stably expressing rat MC1R; format: cell-based; details: data not shown, read-out: EC50 agonistic activity (cAMP)
T2 construct: expressed in transfected cells; host or cells: HEK293 (Jump-In TI Gateway targeted integration, SV40 promoter)
T2 sequence (B6ZGR5 1-317): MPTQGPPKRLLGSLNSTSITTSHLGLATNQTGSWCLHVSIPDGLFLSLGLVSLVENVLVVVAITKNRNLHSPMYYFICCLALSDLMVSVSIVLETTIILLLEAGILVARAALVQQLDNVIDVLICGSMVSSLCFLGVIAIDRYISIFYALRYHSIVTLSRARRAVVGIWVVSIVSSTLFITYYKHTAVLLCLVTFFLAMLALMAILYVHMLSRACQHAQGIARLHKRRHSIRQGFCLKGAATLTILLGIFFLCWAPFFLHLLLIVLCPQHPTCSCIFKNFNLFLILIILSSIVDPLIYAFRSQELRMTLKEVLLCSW

[9] = target: T3, cynomolgus monkey MC1R (cmMC1R) (Macaca fascicularis, UniProt A3KF53); assay: Cyclic AMP assay in HEK293 cells stably expressing cmMC1R; format: cell-based; details: cmMC1R on HEK293; geometric mean of three experiments; read-out: EC50 agonistic activity (cAMP)
T3 sequence (A3KF53 1-317): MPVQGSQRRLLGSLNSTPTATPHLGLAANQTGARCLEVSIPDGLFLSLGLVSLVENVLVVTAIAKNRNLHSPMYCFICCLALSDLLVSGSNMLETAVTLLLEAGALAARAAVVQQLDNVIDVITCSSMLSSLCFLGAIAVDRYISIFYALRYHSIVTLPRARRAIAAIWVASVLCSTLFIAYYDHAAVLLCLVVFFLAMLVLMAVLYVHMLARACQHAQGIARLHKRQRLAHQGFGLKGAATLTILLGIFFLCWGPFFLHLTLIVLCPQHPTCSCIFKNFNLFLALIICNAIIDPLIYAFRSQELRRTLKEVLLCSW
Description: as §2, §3

[10] = Pharmacokinetic study, single oral dose in Ay/a mice; format: in vivo, mouse; details: for Cmax: Ay/a, mouse, po; for Cmax / Tmax / AUC(0-t): plasma; for AUC(0-t): read-out: AUC0–8 h
[11] = tested on: C57BL/6J-Ay/+ mice (Ay/a mice); assay: Coat colour darkening in Ay/a mice; format: in vivo, mouse; details: for Coat colour of all mice: 6 consecutive days
Description: as §1

[12] = tested on: cynomolgus monkeys (Macaca fascicularis); assay: Pigmentation on the facial skin of cynomolgus monkeys (colorimeter, ΔL*); format: in vivo, cynomolgus monkey
Description: This study was conducted in compliance with the ‘Act on Welfare and Management of Animals’ in Japan and the ‘Guidance for Animal Care and Use’ and in accordance with the protocol reviewed by the Institutional Animal Care and Use Committee of the test facility, which is fully accredited by AAALAC International. […] The measurement site (cheek) was the same site on the face for all animals. […] The ΔL* represents the differences of individual L* values between each time point and pre‐test.

[13] = Ay/a mouse, male, 0.03 mg/kg oral, day 1
[14] = Ay/a mouse, male, 0.3 mg/kg oral, day 1

T1 sequence (Q01718 whole entry): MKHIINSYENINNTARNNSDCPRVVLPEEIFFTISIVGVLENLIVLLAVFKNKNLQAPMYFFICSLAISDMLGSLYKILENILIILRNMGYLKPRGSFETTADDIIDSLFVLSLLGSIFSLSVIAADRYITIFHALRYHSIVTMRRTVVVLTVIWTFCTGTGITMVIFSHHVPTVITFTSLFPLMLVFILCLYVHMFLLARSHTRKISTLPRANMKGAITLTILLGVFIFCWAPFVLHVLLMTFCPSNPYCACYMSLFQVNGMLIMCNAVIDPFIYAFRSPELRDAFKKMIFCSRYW
T1 sequence (Q8TCY5 whole entry partner): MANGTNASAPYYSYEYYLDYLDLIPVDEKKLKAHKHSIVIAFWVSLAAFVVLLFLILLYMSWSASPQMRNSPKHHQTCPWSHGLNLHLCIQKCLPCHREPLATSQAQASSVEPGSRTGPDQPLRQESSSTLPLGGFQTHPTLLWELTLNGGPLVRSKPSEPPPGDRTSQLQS

## COC[C@H]1CN(C(=O)[C@]2(F)CN(C3CCCC3)C[C@H]2c2ccc(OC)cc2)C[C@@H]1c1ccc(C(F)(F)F)cc1N1CCC(C(=O)O)CC1 [MT‐7117, dersimelagon]
[1]
  Distribution into the brain: less likely to be distributed into the brain
[2]; monkeys, repeated oral dosing 1 mg/kg, read-out: Cmax in molar units
  Cmax: 78 nM
[2]; monkeys, 1, 3 and 10 mg/kg
  Increase of plasma levels with dose: greater than a dose‐proportional increase
[2]; 1 mg/kg oral, day 28
  Tmax: 2.6 h
  AUC(0-t): 428 ng·h/mL
[2]; 1 mg/kg oral, day 28, read-out: C max
  Cmax: 53 ng/mL
[2]; 3 mg/kg oral, day 28
  Tmax: 1 h
  AUC(0-t): 2510 ng·h/mL
[2]; 3 mg/kg oral, day 28, read-out: C max
  Cmax: 401 ng/mL
[2]; 10 mg/kg oral, day 28
  Tmax: 1.8 h
  AUC(0-t): 14100 ng·h/mL
[2]; 10 mg/kg oral, day 28, read-out: C max
  Cmax: 1510 ng/mL
[3]
  EC50: 0.013 nM
[4]
  Emax of cAMP production compared with αMSH: same level as that of the endogenous agonist αMSH
[5]; 0.3 mg/kg single oral dose, 24 h
  Expression of Tyr, Trp1 and Dct genes in pinnae: tendency towards gene upregulation
[5]; 3 mg/kg single oral dose, 24, 48 and 72 h, relative to Hprt
  Expression of Tyr, Trp1 and Dct genes in pinnae: significantly upregulated
[6]
  EC50: > 10000 nM
[7]
  Histopathological change for melanocytes in face: no histopathological change
[8]
  EC50: 0.251 nM
[9]
  EC50: 3.91 nM
[10]; Ay/a mouse, male, 0.3 mg/kg oral, day 1, 0.3 mg/kg
  C max: 5.62 ng/mL
[10]; male, 0.03 mg/kg, Ay/a mouse, male, 0.03 mg/kg oral, day 1, read-out: C max
  Cmax: 0.668 ng/mL
[10]; male, 0.3 mg/kg, Ay/a mouse, male, 0.3 mg/kg oral, day 1, read-out: C max
  Cmax: 5.6 ng/mL
[10]; male, 0.3 mg/kg, mice, single oral dose 0.3 mg/kg, read-out: Cmax in molar units
  Cmax: 8.3 nM
[10]; mice, 0.03 and 0.3 mg/kg
  Increase of plasma levels with dose: dose‐proportional manner
[10]; [13]
  Tmax: 0.5 h
  AUC(0-t): 2.62 ng·h/mL
[10]; [14]
  Tmax: 2 h
  AUC(0-t): 31.8 ng·h/mL
[11]; 0.3 mg/kg orally
  Coat colour of all mice: black
[11]; 3 mg/kg orally
  Coat colour of all mice: black
[11]; 3 mg/kg, day 6
  Pigment in the hair root (Fontana-Masson staining of dorsal skin): black
[11]; oral, Ay/a mice
  Minimum effective dose for darkening of coat colour of mice: 0.3 mg/kg
[11]; p.o.
  Dose that significantly induced coat colour darkening in mice: ≥ 0.3 mg/kg/day
[12]; 10 mg/kg/day oral
  Time of dosing after which ΔL* decrease was statistically significant versus vehicle: 3 weeks
[12]; 30 mg/kg group
  Time after cessation of treatment at which pigmentation diminished: 16 weeks
[12]; 30 mg/kg/day oral
  Time of dosing after which ΔL* decrease was statistically significant versus vehicle: 1 week
[12]; 1, 3 and 10 mg/kg groups
  Time after cessation of treatment at which pigmentation diminished: 4 weeks
[12]; 1 and 3 mg/kg/day oral
  Time of dosing after which ΔL* decrease was statistically significant versus vehicle: 4 weeks
[12]; oral, once daily
  Minimum effective dose for skin pigmentation of monkeys: 1 mg/kg
[12]; p.o.
  Dose that induced significant skin pigmentation in monkeys: ≥ 1 mg/kg/day
